pKi: −log10 of the molar value. Read-outs that look alike come from different tables or passages of the source. Values belong to the compound of their own block, whether it stands above or below them.
Tests used:
[1] = target: T1, pteridine reductase (TbPTR1) (Trypanosoma brucei, UniProt O76290); assay: crystal structure at […] Å; type: biochemical
[2] = target: T1, pteridine reductase (TbPTR1); assay: crystal structures; type: binding
[3] = target: T1, pteridine reductase (TbPTR1); assay: crystal structure at […] Å; type: biochemical; remark: listed apart in the source
[4] = target: T1, pteridine reductase (TbPTR1); assay: crystal structure at […] Å; type: biochemical; remark: listed apart in the source
[5] = target: T1, pteridine reductase (TbPTR1); assay: crystal structure at […] Å; type: biochemical; remark: listed apart in the source

SMILES: Nc1nc(N)nc(NC2CC2)n1 [Cyromazine, N-cyclopropyl-1,3,5-triazine-2,4,6-triamine]
pKi [1]: < 4.46

SMILES: NC(=O)c1ccc[n+]([C@@H]2O[C@H](COP(=O)(O)OP(=O)(O)OC[C@H]3O[C@@H](n4cnc5c(N)ncnc54)[C@H](OP(=O)(O)O)[C@@H]3O)[C@@H](O)[C@H]2O)c1 [NADP+]
crystal structures (complexes with pemetrexed, trimetrexate, PY848) [2]: Crystals of TbPTR1 in a binary complex with oxidized cofactor (NADP^+) were grown

Other lines, results leading:

pKi [3]: ~7.15
SMILES: COc1ccc(OC)c(CCc2csc3nc(N)nc(N)c23)c1 [PY848, 2,4-diamino-5-[2-(2,5-dimethoxyphenyl)ethyl]thieno[2,3-d]-pyrimidine]

pKi [4]: ~7.52
SMILES: Nc1nc2[nH]cc(CCc3ccc(C(=O)N[C@@H](CCC(=O)O)C(=O)O)cc3)c2c(=O)[nH]1 [Pemetrexed, 2-{4-[2-(4-amino-2-oxo-3,5,7-triazabicyclo[4.3.0]nona-3,8,10-trien-9-yl)ethyl]benzoyl}aminopentanedioic acid]

pKi [5]: ~7.15
SMILES: COc1cc(NCc2ccc3nc(N)nc(N)c3c2C)cc(OC)c1OC [Trimetrexate, 5-methyl-6-[(3,4,5-trimethoxyphenyl)aminomethyl]quinazoline-2,4-diamine]

Source: publication PMC3655514 (Acta crystallographica. Section D, Biological …, 2010)
